Assay in all cases: PDX-derived cell culture cytotoxicity (CellTiter-Glo)
What all share (format): cell-based
Background: Cellular ATP, detected with luciferase, serves as a proxy for viable cell number.

One test concerns CH-17-0091. The settings on record: 120 h; bile duct PDX CH-17-0091; absolute IC50; 5 days. The procedure: (§1) PDX-derived cell cultures were obtained from tumors explanted from mice and isolated by mechanical and enzymatic dissociation. […] Cells were harvested and seeded in 96-wells plates at a density of 1.25 to 5×10^3 cells/well for cytotoxicity assays. Cells were incubated 48 h at 37° C. prior to addition of test molecules and vehicle (DMSO, 0.1%) at desired final concentrations. Cell viability was assessed before drugs' addition (To) and 5 days after test molecules addition by measuring ATP cell content using CellTiter-Glo® Luminescent Cell Viability Assay (Promega) according to the manufacturer's instructions. Luciferase activity was measured on a luminometer (PerkinElmer® EnVision™). Each concentration of compounds was tested in triplicate.
(§2) Viability was calculated as a percentage of ATP value compared to vehicle treated controls.
(§3) For PDX primary cell cultures, the tumour tissue was washed with PBS containing antibiotic-antimycotic and non-tumour tissue and necrotic tumour tissues were separated. The tumour tissue was transferred to a new dish and cut into 1-2 mm^3 fragments, resuspended in RPMI-1640 medium and centrifuged at 1,200 rpm for 6 min at room temperature. The pelleted material was resuspended with 15 mL of Tumour Cell Digestion Solution and incubated at 37° C. for 1 hour with agitation. Following further addition of media, centrifugation and passage through a […] cell strainer, the homogenous cell mixture was layered onto 15 mL of Ficoll-Paque PLUS in a 50 mL conical tube and centrifuged for 15 min at 1,600 rpm. The interface cells were collected, washed with media, separated by centrifugation at 1,200 rpm. The cell pellet was resuspended in serum free media supplemented with growth factors. 10,000 cells/wells were plated in a 96 well plate and incubated at 37° C., 5% CO2, 95% air and 100% relative humidity overnight. The cytotoxicity assay was conducted as above. IC50 values represent absolute IC50.

The next test relates to CO-04-0700. The settings on record: 120 h; colon PDX CO-04-0700; absolute IC50; 5 days. How it is done: as §1, §2, §3
In another test the test system is ME-21-0028. The settings on record: 120 h; skin melanoma PDX ME-21-0028; absolute IC50; 5 days. How it is done:
as §1, §2, §3

The test system of the next test is KI-12-0062. The settings on record: 120 h; kidney PDX KI-12-0062; absolute IC50; 5 days. The procedure:
as §1, §2, §3

A further test concerns BR-05-0399. The settings on record: 120 h; breast PDX BR-05-0399; absolute IC50; 5 days. How it is done: as §1, §2, §3
A further test concerns ES-06-0122. The settings on record: 120 h; esophagus PDX ES-06-0122; absolute IC50; 5 days. The procedure: as §1, §2, §3
The next test has as its system PC-07-0059. The settings on record: 120 h; pancreatic PDX PC-07-0059; absolute IC50; 5 days. How it is done: as §1, §2, §3
The subject of the next test is EN-11-0101. The settings on record: 120 h; endometrial PDX EN-11-0101; absolute IC50; 5 days. The procedure: as §1, §2, §3
The next test relates to ST-02-0322. The settings on record: 120 h; stomach PDX ST-02-0322; absolute IC50; 5 days. How it is done: as §1, §2, §3
The subject of a further test is ST-02-0012. The settings on record: 120 h; stomach PDX ST-02-0012; absolute IC50; 5 days. How it is done: as §1, §2, §3
The subject of the next test is LU-01-0604. The settings on record: 120 h; lung PDX LU-01-0604; absolute IC50; 5 days. How it is done: as §1, §2, §3
In the next test the test system is HN-13-0020. The settings on record: 120 h; head and neck PDX HN-13-0020; absolute IC50; 5 days. The procedure:
as §1, §2, §3

The next test has as its system PC-07-0045. The settings on record: 120 h; pancreatic PDX PC-07-0045; absolute IC50; 5 days. How it is done:
as §1, §2, §3

For the next test, the system named is ES-06-0002. The settings on record: 120 h; esophagus PDX ES-06-0002; absolute IC50; 5 days. How it is done: as §1, §2, §3
Another test deals with LU-01-0025. The settings on record: 120 h; lung PDX LU-01-0025; absolute IC50; 5 days. The procedure:
as §1, §2, §3

The next test has as its system ST-02-0173. The settings on record: 120 h; stomach PDX ST-02-0173; absolute IC50; 5 days. The procedure: as §1, §2, §3
Another test concerns CH-17-0098. The settings on record: 120 h; bile duct PDX CH-17-0098; absolute IC50; 5 days. How it is done: as §1, §2, §3
The next test deals with LY-24-0340. The settings on record: 120 h; lymphoma PDX LY-24-0340; absolute IC50; 5 days. How it is done: as §1, §2, §3

From patent publication US20240209011A1, “HETEROAROMATIC PHOSPHONIUM SALTS FOR TREATING CANCER” (FLORATEK PHARMA S.A., priority 2021, published 2024) come the findings set out here.

The term IC50 denotes the midpoint of a concentration-inhibition curve. The low end stands for greater potency in that assay, the high end for weaker potency in that assay.

Molecules are shown by their SMILES. A value given as a limit tells only on which side of the number the result lay.

In the case of `O=c1cc(-c2ccc(CCCC[P+](c3ccccc3)(c3ccccc3)c3ccccc3)cc2)oc2c3c(ccc12)OCO3.[Br-]` [SND123, 4-[4-(6-oxo-[1,3]dioxolo[4,5-h]chromen-8-yl)phenyl]butyl-triphenylphosphonium bromide], the IC50 is 3 µM in the test on CH-17-0091; 2.6 µM with CO-04-0700; 0.8 µM in the test on ME-21-0028; 3 µM in the test on KI-12-0062; 2.1 µM in the test with BR-05-0399; 4.5 µM in the test on ES-06-0122. Also, the IC50 in the test with PC-07-0059 was 2.7 µM; in the test with EN-11-0101, 1.8 µM; with ST-02-0322, 5.2 µM; in the test on ST-02-0012, 0.3 µM; with LU-01-0604, 0.35 µM; with HN-13-0020, 1.5 µM. For the same compound, the IC50 with PC-07-0045 turned out to be 4 µM; in the test with ES-06-0002, 2.9 µM; in the test with LU-01-0025, 2.4 µM; in the test on ST-02-0173, 2.2 µM; in the test with CH-17-0098, 0.72 µM; in the test with LY-24-0340, 0.4 µM.
In the case of `CCNC(=O)Oc1ccc2c(=O)cc(-c3ccc(CCCC[P+](c4ccccc4)(c4ccccc4)c4ccccc4)cc3)oc2c1OC(=O)NCC.[Br-]` [SND124, 4-[4-[7,8-Bis(ethylcarbamoyloxy)-4-oxo-chromen-2-yl]phenyl]-butyltriphenylphosphonium bromide], the half-maximal inhibitory concentration (IC50) in the test on CH-17-0091 was 5.4 µM; in the test on CO-04-0700, 2.3 µM; with ME-21-0028 it was 7.7 µM; in the test with KI-12-0062 it was 8.5 µM; in the test with BR-05-0399, 5.2 µM; in the test on ES-06-0122, 8.5 µM. The IC50 is 4.2 µM in the test on PC-07-0059; 9.6 µM in the test with EN-11-0101; 10.6 µM with ST-02-0322; 8.2 µM in the test with ST-02-0012; 7.8 µM in the test on LU-01-0604; 2 µM with HN-13-0020. For the same compound, the IC50 is 7 µM with PC-07-0045; 5.6 µM in the test with ES-06-0002; 4.2 µM in the test with LU-01-0025; 11.3 µM with ST-02-0173; 6.1 µM in the test on CH-17-0098; 3.7 µM with LY-24-0340.
Regarding `CCNC(=O)Oc1ccc2c(=O)cc(-c3ccc(CCCC[P+](c4ccccc4)(c4ccccc4)c4ccccc4)cc3)oc2c1O.[Br-]` [SND126A, 4-[4-[7-(Ethylcarbamoyloxy)-8-hydroxy-4-oxo-chromen-2-yl]phenyl]butyltriphenylphosphonium bromide], the IC50 in the test on CH-17-0091 is 7.2 µM; in the test with CO-04-0700, 2.3 µM; in the test on ME-21-0028 it was 8 µM; in the test on KI-12-0062, 11 µM; in the test on BR-05-0399, 6.5 µM; in the test with ES-06-0122, 8.3 µM. In addition, the IC50 in the test on PC-07-0059 worked out at 4.9 µM; with EN-11-0101, 10.2 µM; in the test on ST-02-0322, 9.8 µM; with ST-02-0012 it was 8.9 µM; in the test with LU-01-0604, 8.2 µM; in the test with HN-13-0020, 2.7 µM. Besides, the IC50 in the test on PC-07-0045 amounted to 7.7 µM; with ES-06-0002 it was 9.3 µM; in the test on LU-01-0025, 5.3 µM; in the test with ST-02-0173 it was 14.7 µM; with CH-17-0098 it was 8.5 µM; with LY-24-0340, 4.1 µM.
As to `COc1c(O)ccc2c(=O)cc(-c3ccc(CCCC[P+](c4ccccc4)(c4ccccc4)c4ccccc4)cc3)oc12.[Br-]` [SND140, (4-(4-(7-hydroxy-8-methoxy-4-oxo-4H-chromen-2-yl)phenyl)butyl)triphenylphosphonium bromide], the IC50 is more than 50 µM in the test with CH-17-0091; 12.8 µM in the test with CO-04-0700; 1.1 µM in the test on ME-21-0028; 16.8 µM in the test with KI-12-0062; 6 µM in the test on BR-05-0399; 13.5 µM with ES-06-0122. In addition, the IC50 in the test with PC-07-0059 turned out to be 20.4 µM; in the test with EN-11-0101, 6.2 µM; in the test with ST-02-0322, 13.3 µM; with ST-02-0012 it was 4.9 µM; in the test on LU-01-0604, 7.7 µM; in the test with HN-13-0020, 9.1 µM. Further, the IC50 came out at 13.2 µM in the test on PC-07-0045; 9.66 µM in the test on ES-06-0002; 10.5 µM with LU-01-0025; 9.8 µM in the test on ST-02-0173; 4.98 µM in the test with CH-17-0098; 4.1 µM with LY-24-0340.
